Patent US20070049564A1 (Wyeth, priority 2005, published 2007)
Read-outs that look alike come from different tables or passages of the source.

Tests used:
E. coli = experiment: Range of MIC for E. coli strains; conditions: Escherichia coli
P. aeruginosa GC 2214 = experiment: MIC, broth microdilution; conditions: Pseudomonas aeruginosa, GC2214, P. aeruginosa GC 2214
S. aureus GC 6466 = experiment: MIC, broth microdilution; conditions: Staphylococcus aureus, GC6466, S. aureus GC 6466
E. coli GC 2234 = experiment: MIC, broth microdilution; conditions: Escherichia coli, GC2234, E. coli GC 2234
S. aureus GC 6335 = experiment: MIC, broth microdilution; conditions: Staphylococcus aureus, GC6335, S. aureus GC 6335
E. faecalis GC 2265 = experiment: MIC, broth microdilution; conditions: Enterococcus faecalis, GC2265, E. faecalis GC 2265
Method: Antimicrobial susceptibility testing. The in vitro activities of the antibiotics are determined by the broth microdilution method as recommended by the National Committee for Clinical Laboratory Standards (NCCLS) (1). Mueller-Hinton II broth (MHBII)(BBL Cockeysville, Md.) is the medium employed in the testing procedures. Microtiter plates containing serial dilutions of each antimicrobial agent are inoculated with each organism to yield the appropriate density (10^5 CFU/ml) in a 100 μl final volume. The plates are incubated for 18-22 hours at 35° C. in ambient air.
Representative compounds were first incubated in mouse serum for an hour prior to the in vitro testing against a panel of selected gram-positive and gram-negative bacteria strains. All compounds were also pre-incubated in water for an hour prior to testing as control.

S. pyogenes GC 4563 = experiment: MIC, broth microdilution; conditions: Streptococcus pyogenes, GC4563, S. pyogenes GC 4563
E. coli GC 2270 = experiment: MIC, broth microdilution; conditions: Escherichia coli, GC2270, E. coli GC 2270
E. coli GC 2231 = experiment: MIC, broth microdilution; conditions: Escherichia coli, GC2231, E. coli GC 2231
S. aureus GC 2216 = experiment: MIC, broth microdilution; conditions: Staphylococcus aureus, GC2216, S. aureus GC 2216
E. coli GC 2271 = experiment: MIC, broth microdilution; conditions: Escherichia coli, GC2271, E. coli GC 2271
E. coli GC 2236 = experiment: MIC, broth microdilution; conditions: Escherichia coli, GC2236, E. coli GC 2236
E. faecium GC 2243 = experiment: MIC, broth microdilution; conditions: Enterococcus faecium, GC2243, E. faecium GC 2243
E. coli GC 2233 = experiment: MIC, broth microdilution; conditions: Escherichia coli, GC2233, E. coli GC 2233
E. coli GC 2203 = experiment: MIC, broth microdilution; conditions: Escherichia coli, GC2203, E. coli GC 2203
E. faecium GC 4556 = experiment: MIC, broth microdilution; conditions: Enterococcus faecium, GC4556, E. faecium GC 4556
Staph. = experiment: Range of MIC for Staph. strains, including MRSA; conditions: Staphylococcus aureus
E. coli GC 2232 = experiment: MIC, broth microdilution; conditions: Escherichia coli, GC2232, E. coli GC 2232
S. aureus GC 6469 = experiment: MIC, broth microdilution; conditions: Staphylococcus aureus, GC6469, S. aureus GC 6469
E. coli GC 3226 = experiment: MIC, broth microdilution; conditions: Escherichia coli, GC3226, E. coli GC 3226
[1] = 20 h, read-out: Range of MIC, E. coli (Mouse Serum)
[2] = read-out: Minimum inhibitory concentration (MIC), E. coli (mouse serum)
[3] = read-out: Range of MIC, E. coli (Water)
[4] = MRSA, read-out: Minimum inhibitory concentration (MIC), Staph. (mouse serum)
[5] = MRSA, read-out: Minimum inhibitory concentration (MIC), Staph. (water)
[6] = MRSA, read-out: Range of MIC, Staph (Mouse Serum)
[7] = MRSA, read-out: Range of MIC, Staph (Water)

Measured: MIC

CCCCN(CC(=O)Nc1cc(N(C)C)c2c(c1O)C(=O)C1=C(O)[C@]3(O)C(=O)C(C(N)=O)=C(O)[C@@H](N(C)C)C3CC1C2)C(=O)OCOC(=O)c1ccc(C)cc1 (stereo partly drawn) [Example 3, ({[(2-{[(7S,10aS)-9-(aminocarbonyl)-4,7-bis(dimethylamino)-1,8,10a,11-tetrahydroxy-10,12-dioxo-5,5a,6,6a,7,10,10a,12-octahydrotetracen-2-yl]amino}-2-oxoethyl)(butyl)amino]carbonyl}oxy)methyl 4-methylbenzoate]
0.25 µg/mL: S. pyogenes GC 4563; Water pre-incubation
4 to 32 µg/mL: Staph.; [5] | Staph.; [7]
2 µg/mL: S. aureus GC 6335; Mouse Serum pre-incubation | E. faecalis GC 2265; Mouse Serum pre-incubation | E. coli GC 2231; Mouse Serum pre-incubation | E. faecium GC 4556; Mouse Serum pre-incubation | E. coli GC 2232; Mouse Serum pre-incubation | E. coli GC 3226; Mouse Serum pre-incubation
16 µg/mL: E. faecium GC 4556; Water pre-incubation
4 µg/mL: S. aureus GC 6466; Water pre-incubation | S. aureus GC 2216; Water pre-incubation | E. faecium GC 2243; Water pre-incubation | S. aureus GC 6469; Mouse Serum pre-incubation
> 64 µg/mL: E. coli; read-out: Minimum inhibitory concentration (MIC), E. coli (water) | E. coli; [3] | P. aeruginosa GC 2214; Water pre-incubation | E. coli GC 2234; Water pre-incubation | E. coli GC 2270; Water pre-incubation | E. coli GC 2231; Water pre-incubation | E. coli GC 2271; Water pre-incubation | E. coli GC 2236; Water pre-incubation | E. coli GC 2233; Water pre-incubation | E. coli GC 2203; Water pre-incubation | E. coli GC 2232; Water pre-incubation | E. coli GC 3226; Water pre-incubation
1 to 2 µg/mL: E. coli; [1] | E. coli; [2]
0.12 µg/mL: S. pyogenes GC 4563; Mouse Serum pre-incubation
32 µg/mL: P. aeruginosa GC 2214; Mouse Serum pre-incubation | E. faecalis GC 2265; Water pre-incubation | S. aureus GC 6469; Water pre-incubation
1 to 4 µg/mL: Staph.; [4] | Staph.; [6]
1 µg/mL: S. aureus GC 6466; Mouse Serum pre-incubation | E. coli GC 2234; Mouse Serum pre-incubation | E. coli GC 2270; Mouse Serum pre-incubation | S. aureus GC 2216; Mouse Serum pre-incubation | E. coli GC 2271; Mouse Serum pre-incubation | E. coli GC 2236; Mouse Serum pre-incubation | E. faecium GC 2243; Mouse Serum pre-incubation | E. coli GC 2233; Mouse Serum pre-incubation | E. coli GC 2203; Mouse Serum pre-incubation
8 µg/mL: S. aureus GC 6335; Water pre-incubation

CCCCN(CC(=O)Nc1cc(N(C)C)c2c(c1O)C(=O)C1=C(O)[C@]3(O)C(=O)C(C(N)=O)=C(O)[C@@H](N(C)C)[C@@H]3C[C@@H]1C2)C(=O)OCOC(=O)c1ccc(F)cc1 [Example 4, ({[(2-{[(5aR,6aS,7S,10aS)-9-(aminocarbonyl)-4,7-bis(dimethylamino)-1,8,10a,11-tetrahydroxy-10,12-dioxo-5,5a,6,6a,7,10,10a,12-octahydrotetracen-2-yl]amino}-2-oxoethyl)(butyl)amino]carbonyl}oxy)methyl 4-fluorobenzoate]
16 µg/mL: S. aureus GC 6469; Water pre-incubation
1 µg/mL: E. coli GC 2234; Mouse Serum pre-incubation | S. aureus GC 6335; Mouse Serum pre-incubation | E. coli GC 2270; Mouse Serum pre-incubation | E. coli GC 2231; Mouse Serum pre-incubation | E. coli GC 2236; Mouse Serum pre-incubation | E. coli GC 2233; Mouse Serum pre-incubation | E. coli GC 2203; Mouse Serum pre-incubation | E. faecium GC 4556; Mouse Serum pre-incubation | E. coli GC 2232; Mouse Serum pre-incubation
8 µg/mL: E. faecalis GC 2265; Water pre-incubation
2 to 8 µg/mL: Staph.; read-out: Minimum inhibitory concentration (MIC), Staph (Water)
0.12 µg/mL: S. pyogenes GC 4563; Mouse Serum pre-incubation
> 64 µg/mL: P. aeruginosa GC 2214; Water pre-incubation
64 µg/mL: E. coli GC 2234; Water pre-incubation | E. coli GC 2270; Water pre-incubation | E. coli GC 2231; Water pre-incubation | E. coli GC 2271; Water pre-incubation | E. coli GC 2236; Water pre-incubation | E. coli GC 2233; Water pre-incubation | E. coli GC 2203; Water pre-incubation | E. coli GC 2232; Water pre-incubation | E. coli GC 3226; Water pre-incubation
4 µg/mL: S. aureus GC 6335; Water pre-incubation | S. aureus GC 2216; Water pre-incubation | E. faecium GC 4556; Water pre-incubation
0.5 µg/mL: S. aureus GC 6466; Mouse Serum pre-incubation | S. aureus GC 2216; Mouse Serum pre-incubation | E. coli GC 2271; Mouse Serum pre-incubation | E. faecium GC 2243; Mouse Serum pre-incubation
2 to 16 µg/mL: Staph.; [5] | Staph.; [7]
0.5 to 2 µg/mL: E. coli; [1] | E. coli; [2] | Staph.; [4] | Staph.; [6]
32 µg/mL: P. aeruginosa GC 2214; Mouse Serum pre-incubation
0.5 to 4 µg/mL: Staph.; read-out: Minimum inhibitory concentration (MIC), Staph (Human Serum)
0.25 µg/mL: S. pyogenes GC 4563; Water pre-incubation
2 µg/mL: S. aureus GC 6466; Water pre-incubation | E. faecalis GC 2265; Mouse Serum pre-incubation | E. faecium GC 2243; Water pre-incubation | S. aureus GC 6469; Mouse Serum pre-incubation | E. coli GC 3226; Mouse Serum pre-incubation
8 to 32 µg/mL: E. coli; read-out: Minimum inhibitory concentration (MIC), E. coli (Human Serum)

CCCN(CC(=O)Nc1cc(N(C)C)c2c(c1O)C(=O)C1=C(O)[C@]3(O)C(=O)C(C(N)=O)=C(O)[C@@H](N(C)C)[C@@H]3C[C@@H]1C2)C(=O)OCOC(=O)c1ccc(C)cc1 [Example 5, ({[(2-{[(5aR,6aS,7S,10aS)-9-(aminocarbonyl)-4,7-bis(dimethylamino)-1,8,10a,11-tetrahydroxy-10,12-dioxo-5,5a,6,6a,7,10,10a,12-octahydrotetracen-2-yl]amino}-2-oxoethyl)(propyl)amino]carbonyl}oxy)methyl 4-methylbenzoate]
16 to 64 µg/mL: E. coli; [3] | E. coli; read-out: Range of MIC, E. coli (water)
32 µg/mL: P. aeruginosa GC 2214; Mouse Serum pre-incubation | E. coli GC 2234; Water pre-incubation | E. coli GC 2233; Water pre-incubation | E. coli GC 2203; Water pre-incubation | E. coli GC 2232; Water pre-incubation | E. coli GC 3226; Water pre-incubation
16 µg/mL: E. coli GC 2270; Water pre-incubation | E. coli GC 2271; Water pre-incubation | E. coli GC 2236; Water pre-incubation
0.5 to 4 µg/mL: Staph.; [7] | Staph.; MRSA, read-out: Range of MIC, Staph. (water)
0.12 µg/mL: S. pyogenes GC 4563; Mouse Serum pre-incubation
4 µg/mL: E. faecalis GC 2265; Water pre-incubation | S. aureus GC 6469; Water pre-incubation
2 µg/mL: E. faecalis GC 2265; Mouse Serum pre-incubation | E. coli GC 2231; Mouse Serum pre-incubation | S. aureus GC 2216; Water pre-incubation | E. coli GC 2236; Mouse Serum pre-incubation | E. coli GC 2233; Mouse Serum pre-incubation | E. faecium GC 4556; Water pre-incubation | E. coli GC 2232; Mouse Serum pre-incubation | S. aureus GC 6469; Mouse Serum pre-incubation | E. coli GC 3226; Mouse Serum pre-incubation
0.5 µg/mL: S. aureus GC 6466; Water pre-incubation | S. aureus GC 6335; Mouse Serum pre-incubation | S. aureus GC 2216; Mouse Serum pre-incubation | E. faecium GC 2243; Mouse Serum pre-incubation
64 µg/mL: E. coli GC 2231; Water pre-incubation
0.25 to 2 µg/mL: Staph.; [6] | Staph.; MRSA, read-out: Range of MIC, Staph. (mouse serum)
0.25 µg/mL: S. aureus GC 6466; Mouse Serum pre-incubation | S. pyogenes GC 4563; Water pre-incubation
1 to 2 µg/mL: E. coli; [1] | E. coli; read-out: Range of MIC, E. coli (mouse serum)
1 µg/mL: E. coli GC 2234; Mouse Serum pre-incubation | S. aureus GC 6335; Water pre-incubation | E. coli GC 2270; Mouse Serum pre-incubation | E. coli GC 2271; Mouse Serum pre-incubation | E. faecium GC 2243; Water pre-incubation | E. coli GC 2203; Mouse Serum pre-incubation | E. faecium GC 4556; Mouse Serum pre-incubation
> 64 µg/mL: P. aeruginosa GC 2214; Water pre-incubation
